According to the OligoGym collection:
Where “and” joins values, the source holds several entries; their conditions need not be identical. Equal entries are not always repeated. After the bases stand the sugars from the 5' end (letter, count) and the backbone: PS all phosphorothioate, else s phosphorothioate and o phosphodiester by linkage. Methylation of C is not given here. e = 2'-O-(2-methoxyethyl) (MOE); l = locked nucleic acid (LNA); k = constrained ethyl (cEt); d = 2'-deoxy (DNA)

Tests used:
ANGPTL2 = conditions: ASO
MYH7 = conditions: ASO, CC-2580, 5 µM
KRAS = conditions: ASO

| Sequence | target mRNA inhibition (ANGPTL2; 5 µM) | target mRNA inhibition (ANGPTL2; 25 µM) | target mRNA inhibition (KRAS; A431, 2 µM) | further results |
| --- | --- | --- | --- | --- |
| AGGGGCTATGACTATCC (sugars l1 d14 l2, PS) | 41.3% | 45.9% | – | – |
| CAGCTTGGCGATGATCT (sugars ldldlddddddlddlll, PS) | – | – | – | target mRNA inhibition (MYH7): 38% and 29% |
| AGGCCAACACTAACTCG (sugars l2 d13 l2, PS) | 70.5% | 78.8% | – | – |
| TGGTTGATGATGCGGTTG (sugars l2 d14 l2, PS) | 77.6% | 86.1% | – | – |
| GCTGGAAAGAGGGATAGA (sugars l2 d14 l2, PS) | 60.7% | 66.2% | – | – |
| CAGCTTGGCGATGATCT (sugars l2 d12 l3, PS) | – | – | – | target mRNA inhibition (MYH7): 67% and 45% |
| TAGTGGGCACAGTTTCC (sugars l1 d14 l2, PS) | 21.2% | 36.4% | – | – |
| CAGCTTGGCGATGATCT (sugars lddlddddddddlldll, PS) | – | – | – | target mRNA inhibition (MYH7): 29% and 5% |
| CAGCTTGGCGATGATCT (sugars ldldddddddlddllll, PS) | – | – | – | target mRNA inhibition (MYH7): 40% and 31% |
| CTTGGCAATGATCTCATCC (sugars lddddddlddllddlddll, PS) | – | – | – | target mRNA inhibition (MYH7): 34% and 17% |
| CAGCTTGGCGATGATCT (sugars lldldldddldddddll, PS) | – | – | – | target mRNA inhibition (MYH7): -1% and -7% |
| CTTGGCAATGATCTCATCC (sugars llldddddddllddlddll, PS) | – | – | – | target mRNA inhibition (MYH7): 71% and 62% |
| TCAGCTTGGCGATGATCT (sugars llddlddddddddlddll, PS) | – | – | – | target mRNA inhibition (MYH7): 35% and 16% |
| ACACCCAAGACTCAGAT (sugars l4 d11 l2, PS) | 6.49% | 5.75% | – | – |
| CTTGGCAATGATCTCATCC (sugars l2 d5 l1 d7 l4, PS) | – | – | – | target mRNA inhibition (MYH7): 69% and 45% |
| CAGCTTGGCGATGATCT (sugars ldldlddldddddddll, PS) | – | – | – | target mRNA inhibition (MYH7): 28% and 3% |
| TGCTGGGGCACAATGAA (sugars l2 d12 l3, PS) | 28.2% | 2.72% | – | – |
| TTGATGATGCGGTTGTAGGT (sugars l1 d17 l2, PS) | 41.3% | 48.7% | – | – |
| GAGCCTTTACATGCCG (sugars l2 d12 l2, PS) | 41% | 66.8% | – | – |
| TTAACAGAGCCATCCAGG (sugars l1 d15 l2, PS) | 24.9% | 25.4% | – | – |
| CAGCTTGGCGATGATCT (sugars llddddlddddldldll, PS) | – | – | – | target mRNA inhibition (MYH7): 15% and 5% |
| CAGCTTGGCGATGATCT (sugars lddlllddlddddddll, PS) | – | – | – | target mRNA inhibition (MYH7): 12% and 3% |

| Sequence | target mRNA inhibition (ANGPTL2; 5 µM) | target mRNA inhibition (ANGPTL2; 25 µM) | target mRNA inhibition (KRAS; A431, 2 µM) | further results |
| --- | --- | --- | --- | --- |
| CAGCTTGGCGATGATCT (sugars l2 d11 l4, PS) | – | – | – | target mRNA inhibition (MYH7): 65% and 45% |
| AGCTCATTGTTGAGCAG (sugars l1 d13 l3, PS) | 4.81% | 13.2% | – | – |
| CTTGGCAATGATCTCATCC (sugars l4 d12 l3, PS) | – | – | – | target mRNA inhibition (MYH7): 73% and 58% |
| CAGCTTGGCGATGATCT (sugars lddlldddddlldddll, PS) | – | – | – | target mRNA inhibition (MYH7): 15% and 12% |
| TGGGCATAGTGGGCAGA (sugars l1 d14 l2, PS) | 58.9% | 64% | – | – |
| CAGCTTGGCGATGATCT (sugars llddddddldddlddll, PS) | – | – | – | target mRNA inhibition (MYH7): 17% and -2% |
| TCAGCTTGGCGATGATCT (sugars lddldlddddddlddlll, PS) | – | – | – | target mRNA inhibition (MYH7): 47% and 30% |
| TGAAGGAAAGTAGGAGGGA (sugars l1 d15 l3, PS) | 10.6% | 16.5% | – | – |
| TTGGACAACTAGGCAGCA (sugars l3 d13 l2, PS) | 38.8% | 60.3% | – | – |
| CAGCTTGGCGATGATCT (sugars lddllddddldddddll, PS) | – | – | – | target mRNA inhibition (MYH7): 23% and 2% |
| CCAGCCGCAGCTTATA (sugars l1 d13 l2, PS) | 21.8% | 35.3% | – | – |
| TCAGCTTGGCGATGATCT (sugars l3 d11 l4, PS) | – | – | – | target mRNA inhibition (MYH7): 68% and 52% |
| TTGAGATTCCCCCAAAG (sugars l2 d11 l4, PS) | 28.3% | 41.2% | – | – |
| TGATGCGGTTGTAGGT (sugars l2 d12 l2, PS) | 73.2% | – | – | – |
| CCAGGCAGTTTCTTATG (sugars l1 d13 l3, PS) | 16.4% | 25.8% | – | – |
| AGTTGATAGTTTATCTCC (sugars l2 d14 l2, PS) | 51.7% | 64.9% | – | – |
| TGTAGGTGCACTTGTC (sugars l2 d12 l2, PS) | 28.5% | 49.4% | – | – |
| GAGTTGAAGGGAGGTGC (sugars l1 d14 l2, PS) | 17.7% | -10.3% | – | – |
| GAACCATTTTGAGATTCCC (sugars l1 d16 l2, PS) | 27.6% | 7.84% | – | – |
| GAACCATTTTGAGATTCC (sugars l3 d13 l2, PS) | 56.6% | 52% | – | – |
| CTCCGGTAATGGCCC (sugars l1 d12 l2, PS) | -5% | 15.6% | – | – |
| CCTTTTCACTCTCAATAT (sugars l3 d13 l2, PS) | 36.8% | 43.5% | – | – |

| Sequence | target mRNA inhibition (ANGPTL2; 5 µM) | target mRNA inhibition (ANGPTL2; 25 µM) | target mRNA inhibition (KRAS; A431, 2 µM) | further results |
| --- | --- | --- | --- | --- |
| CAGCTCATTGTTGAGCA (sugars l2 d13 l2, PS) | 0.32% | – | – | – |
| AACCATTTTGAGATTCCC (sugars l3 d13 l2, PS) | 40.2% | 52.7% | – | – |
| AACCATTTTGAGATTCC (sugars l4 d11 l2, PS) | 67.7% | 81.3% | – | – |
| ACAAGCCAGTTGTATGT (sugars l1 d12 l4, PS) | 58.2% | 72.3% | – | – |
| ACAGGGAAAGAATTTGGGTC (sugars l1 d16 l3, PS) | 44.4% | 37.5% | – | – |
| CAGGTGCTGGTACTTGTG (sugars l1 d15 l2, PS) | 40.4% | 54.2% | – | – |
| GCTATTAGGAGTCTTT (sugars k3 d10 k3, PS) | – | – | – | target mRNA inhibition (KRAS; A431, 0.125 µM): 68% and 67%; target mRNA inhibition (KRAS; A431, 0.185 µM): 33% and 16% and 26%; target mRNA inhibition (KRAS; A431, 0.556 µM): 50% and 47% and 44%; target mRNA inhibition (KRAS; A431, 1.667 µM): 77% and 67% and 58%; target mRNA inhibition (KRAS; NCI-H460, 0.037 µM): 69.9% |
| ATTGTGCAATGGTGAC (sugars k3 d10 k3, PS) | – | – | 57% | – |
| AATAATCCCCATTTCA (sugars k3 d10 k3, PS) | – | – | 16% | – |
| GTTTATGCAATGTTAA (sugars kdddddddddkekeke, PS) | – | – | 31% | – |
| TCTTGATTTGTCAGCA (sugars k3 d10 k3, PS) | – | – | 62% | target mRNA inhibition (KRAS; A431, 0.185 µM): 13% and 0%; target mRNA inhibition (KRAS; A431, 0.556 µM): 22% and 21%; target mRNA inhibition (KRAS; A431, 1.667 µM): 60% and 47%; target mRNA inhibition (KRAS; A431, 5 µM): 75% and 69% |
| TAGTGATTAGGTCAAA (sugars kkddddddddddkeke, PS) | – | – | 34% | – |
| GGAGATATCCACAGCA (sugars k3 d10 k3, PS) | – | – | 0% | – |
| GATTGTGCTGAGCTTG (sugars kkdddddddddkdkdk, PS) | – | – | 57% | target mRNA inhibition (KRAS; A431, 0.185 µM): 0%; target mRNA inhibition (KRAS; A431, 0.556 µM): 17%; target mRNA inhibition (KRAS; A431, 1.667 µM): 48%; target mRNA inhibition (KRAS; A431, 5 µM): 58% |
| TTTAATGTCACAAGCA (sugars k3 d10 k3, PS) | – | – | 57% | target mRNA inhibition (KRAS; A431, 0.037 µM): 58%; target mRNA inhibition (KRAS; A431, 5 µM): 96% and 93%; target mRNA inhibition (KRAS; NCI-H460, 0.037 µM): 44.2% |
| TAATTAATCCATTTAT (sugars k3 d10 k3, PS) | – | – | 0% | – |
| CAGTGTGACTCAGTTA (sugars kkkdddddddddkeke, PS) | – | – | 55% | – |
| CTATCCTCTCCCAAACATG (sugars l1 d16 l2, PS) | 16% | 24.1% | – | – |
| GTTTCACATAGCAATT (sugars k3 d10 k3, PS) | – | – | 29% | – |
| CAGTGTGACTCAGTTA (sugars kdddddddddkekeke, PS) | – | – | 54% | – |
| CAGTGTGACTCAGTTA (sugars kkdddddddddkekek, PS) | – | – | 56% | – |
| ACCAGTGTTAAGAGAA (sugars kkkdddddddddkeke, PS) | – | – | 40% | – |

| Sequence | target mRNA inhibition (ANGPTL2; 5 µM) | target mRNA inhibition (ANGPTL2; 25 µM) | target mRNA inhibition (KRAS; A431, 2 µM) | further results |
| --- | --- | --- | --- | --- |
| CGGTTGTAGGTGGGTGG (sugars l1 d14 l2, PS) | 21.1% | -3.3% | – | – |
| TTGATTTGTCAGCAGG (sugars kkddddddddddkeke, PS) | – | – | 66% and 45% | target mRNA inhibition (KRAS; A431, 0.185 µM): 25%; target mRNA inhibition (KRAS; A431, 0.556 µM): 48%; target mRNA inhibition (KRAS; A431, 1.667 µM): 62%; target mRNA inhibition (KRAS; A431, 5 µM): 83% |
| AGCTATTAGGAGTCTT (sugars k3 d10 k3, PS) | – | – | 35% | – |
| ACCAGTGTTAAGAGAA (sugars kkkddddddddkekek, PS) | – | – | 51% | – |
| TTGTACTAGTATGCCT (sugars k3 d10 k3, PS) | – | – | 55% | – |
| CCAGTGTTAAGAGAAC (sugars kkdddddddddkdkdk, PS) | – | – | 38% | – |
| GTTTAAAAAAAAAATT (sugars k3 d10 k3, PS) | – | – | 2% | – |
| CAACTGCATGCACCAA (sugars k3 d10 k3, PS) | – | – | 31% | – |
| TTGATGATGCGGTTGTAGG (sugars l2 d15 l2, PS) | 55.3% | 67.3% | – | – |
| TTAGTGATTAGGTCAA (sugars kkddddddddkekekk, PS) | – | – | 33% | – |
| AAAAAAATTAATGTCT (sugars k3 d10 k3, PS) | – | – | 7% | – |
| GTTCTGTCTATTCATA (sugars k3 d10 k3, PS) | – | – | 31% | – |
| AGTCTATTTCAGGCGG (sugars k3 d10 k3, PS) | – | – | – | target mRNA inhibition (KRAS; A431, 5 µM): 50% |
| AGTTCTGTTTGATCTTC (sugars l2 d11 l4, PS) | 52.7% | 69.2% | – | – |
| GCAAAGGTCAGAAACATC (sugars l3 d12 l3, PS) | 28.8% | 37.7% | – | – |
| CTTGTTGAGCTATCCA (sugars k3 d10 k3, PS) | – | – | 63% | – |
| TGGTGTAACATAGGTT (sugars kkdddddddddkdkdk, PS) | – | – | 57% | target mRNA inhibition (KRAS; A431, 0.185 µM): 13%; target mRNA inhibition (KRAS; A431, 0.556 µM): 33%; target mRNA inhibition (KRAS; A431, 1.667 µM): 63%; target mRNA inhibition (KRAS; A431, 5 µM): 75% |
| TCCAGGGTGGTGAACTG (sugars l2 d13 l2, PS) | 25.1% | 23.2% | – | – |
| CATTCAAAGTTCACAT (sugars k3 d10 k3, PS) | – | – | 2% | – |
